Measurements reported in PubChem BioAssay (NCI).
Values joined by “and” are separate entries in the source; they are usually repeats but may differ in a detail not shown here. Identical values can stand only once.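 Test compounds were applied to cells in 96-well plates for 48 hours at 5 doses. GI50 = concentration required for 50% inhibition of growth. Definition used: TGI = concentration required for complete inhibition of growth.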

Tests used:
Experiment in all cases: NCI tumour cell line growth inhibition, 48 h; in the data active = GI50 below about 0.43 µM; inactive = the rest
A498 renal = test system: A498 renal
A549 NSCLC = test system: A549 NSCLC
CCRF-CEM leukemia = test system: CCRF-CEM leukemia
COLO 205 colon = test system: COLO 205 colon
DLD-1 colon = test system: DLD-1 colon
DMS 273 small cell lung = test system: DMS 273 small cell lung
HCC-2998 colon = test system: HCC-2998 colon
HCT-116 colon = test system: HCT-116 colon
HCT-15 colon = test system: HCT-15 colon
HL-60(TB) leukemia = test system: HL-60(TB) leukemia
HOP-18 NSCLC = test system: HOP-18 NSCLC
HOP-62 NSCLC = test system: HOP-62 NSCLC
HOP-92 NSCLC = test system: HOP-92 NSCLC
HT29 colon = test system: HT29 colon
IGROV1 ovarian = test system: IGROV1 ovarian
K-562 leukemia = test system: K-562 leukemia
KM12 colon = test system: KM12 colon
KM20L2 colon = test system: KM20L2 colon
LOX IMVI melanoma = test system: LOX IMVI melanoma
M19-MEL melanoma = test system: M19-MEL melanoma
MALME-3M melanoma = test system: MALME-3M melanoma
MCF7 breast = test system: MCF7 breast
MOLT-4 leukemia = test system: MOLT-4 leukemia
NCI-H23 lung = test system: NCI-H23 lung
NCI-H460 lung = test system: NCI-H460 lung
NCI-H522 lung = test system: NCI-H522 lung
NCI/ADR-RES ovarian = test system: NCI/ADR-RES ovarian
OVCAR-3 ovarian = test system: OVCAR-3 ovarian
OVCAR-4 ovarian = test system: OVCAR-4 ovarian
OVCAR-5 ovarian = test system: OVCAR-5 ovarian
OVCAR-8 ovarian = test system: OVCAR-8 ovarian
P388 leukemia = test system: P388 leukemia
P388/ADR leukemia = test system: P388/ADR leukemia
RPMI-8226 leukemia = test system: RPMI-8226 leukemia
RXF 393 renal = test system: RXF 393 renal
SF-295 CNS = test system: SF-295 CNS
SF-539 CNS = test system: SF-539 CNS
SK-MEL-2 melanoma = test system: SK-MEL-2 melanoma
SK-MEL-28 melanoma = test system: SK-MEL-28 melanoma
SK-MEL-5 melanoma = test system: SK-MEL-5 melanoma
SK-OV-3 ovarian = test system: SK-OV-3 ovarian
SN12C renal = test system: SN12C renal
SN12K1 renal = test system: SN12K1 renal
SNB-19 CNS = test system: SNB-19 CNS
SNB-75 CNS = test system: SNB-75 CNS
SNB-78 CNS = test system: SNB-78 CNS
SW-620 colon = test system: SW-620 colon
U251 CNS = test system: U251 CNS
UACC-257 melanoma = test system: UACC-257 melanoma
UO-31 renal = test system: UO-31 renal
786-0 renal = test system: 786-0 renal
ACHN renal = test system: ACHN renal
CAKI-1 renal = test system: CAKI-1 renal
EKVX NSCLC = test system: EKVX NSCLC
LXFL 529 NSCLC = test system: LXFL 529 NSCLC
M14 melanoma = test system: M14 melanoma
NCI-H226 lung = test system: NCI-H226 lung
RXF-631 renal = test system: RXF-631 renal
SF-268 CNS = test system: SF-268 CNS
SR leukemia = test system: SR leukemia
TK-10 renal = test system: TK-10 renal
UACC-62 melanoma = test system: UACC-62 melanoma
XF 498 CNS = test system: XF 498 CNS

O=C(/C=C\c1ccc(/C=C/C(=O)Nc2cccc(C3=NCCCN3)c2)cc1)Nc1cccc(C2=NCCCN2)c1
76.3 µM: TGI (RPMI-8226 leukemia)
> 100 µM: TGI (A498 renal) | TGI (A549 NSCLC) | TGI (CCRF-CEM leukemia) | TGI (COLO 205 colon) | TGI (DLD-1 colon) | TGI (DMS 273 small cell lung) | TGI (HCC-2998 colon) | TGI (HCT-116 colon) | TGI (HCT-15 colon) | TGI (HL-60(TB) leukemia) | TGI (HOP-18 NSCLC) | TGI (HOP-62 NSCLC) | TGI (HOP-92 NSCLC) | TGI (HT29 colon) | TGI (IGROV1 ovarian) | TGI (K-562 leukemia) | TGI (KM12 colon) | TGI (KM20L2 colon) | TGI (LOX IMVI melanoma) | TGI (M19-MEL melanoma) | TGI (MALME-3M melanoma) | TGI (MCF7 breast) | TGI (MOLT-4 leukemia) | TGI (NCI-H23 lung) | TGI (NCI-H460 lung) | TGI (NCI-H522 lung) | TGI (NCI/ADR-RES ovarian) | TGI (OVCAR-3 ovarian) | TGI (OVCAR-4 ovarian) | TGI (OVCAR-5 ovarian) | TGI (OVCAR-8 ovarian) | TGI (P388 leukemia) | TGI (P388/ADR leukemia) | TGI (RXF 393 renal) | TGI (SF-295 CNS) | TGI (SF-539 CNS) | TGI (SK-MEL-2 melanoma) | TGI (SK-MEL-28 melanoma) | TGI (SK-OV-3 ovarian) | TGI (SN12C renal) | TGI (SN12K1 renal) | TGI (SNB-19 CNS) | TGI (SNB-75 CNS) | TGI (SNB-78 CNS) | TGI (SW-620 colon) | TGI (U251 CNS) | TGI (UACC-257 melanoma) | TGI (UO-31 renal)
> 83.5 µM: TGI (SK-MEL-5 melanoma)

CC1CCC2c3c([nH]c4ccccc34)C3C(=O)N(c4ccccc4)C(=O)C3C2C1 (stereo unspecified)
224 µM: TGI (ACHN renal)
95.5 µM and 99.1 µM: TGI (MOLT-4 leukemia)
56.8 µM: TGI (HOP-92 NSCLC)
215 µM: TGI (MALME-3M melanoma)
40.6 µM and > 250 µM: TGI (786-0 renal)
91.4 µM: TGI (SK-MEL-2 melanoma)
92 µM: TGI (HOP-62 NSCLC)
69.9 µM: TGI (HOP-18 NSCLC)
> 250 µM: TGI (A549 NSCLC) | TGI (CAKI-1 renal) | TGI (DLD-1 colon) | TGI (EKVX NSCLC) | TGI (HCC-2998 colon) | TGI (HCT-116 colon) | TGI (HCT-15 colon) | TGI (HL-60(TB) leukemia) | TGI (HT29 colon) | TGI (KM12 colon) | TGI (KM20L2 colon) | TGI (LOX IMVI melanoma) | TGI (LXFL 529 NSCLC) | TGI (M14 melanoma) | TGI (M19-MEL melanoma) | TGI (NCI-H23 lung) | TGI (NCI-H460 lung) | TGI (NCI-H522 lung) | TGI (OVCAR-3 ovarian) | TGI (OVCAR-4 ovarian) | TGI (OVCAR-8 ovarian) | TGI (RXF-631 renal) | TGI (SF-295 CNS) | TGI (SK-MEL-28 melanoma) | TGI (SN12C renal) | TGI (SNB-19 CNS) | TGI (SR leukemia) | TGI (SW-620 colon) | TGI (U251 CNS) | TGI (UACC-257 melanoma) | TGI (UO-31 renal)
96.4 µM and 161 µM: TGI (NCI-H226 lung)
42 µM and > 250 µM: TGI (CCRF-CEM leukemia)
97.9 µM and > 250 µM: TGI (SF-268 CNS)
7.55 µM: TGI (XF 498 CNS)
27.6 µM and > 250 µM: TGI (SF-539 CNS)
82.2 µM and > 250 µM: TGI (UACC-62 melanoma)
57 µM and 130 µM: TGI (IGROV1 ovarian)
33.7 µM: TGI (RXF 393 renal)
28.5 µM and 99.6 µM: TGI (SK-OV-3 ovarian)
inactive: GI50 (786-0 renal) 77.6 µM | GI50 (A549 NSCLC) > 250 µM | GI50 (ACHN renal) 47.9 µM | GI50 (CCRF-CEM leukemia) 194 µM | GI50 (IGROV1 ovarian) 38.2 µM | GI50 (K-562 leukemia) 54.8 µM | GI50 (LOX IMVI melanoma) 153 µM | GI50 (M14 melanoma) 160 µM | GI50 (MOLT-4 leukemia) 44.7 µM | GI50 (NCI-H226 lung) 62.3 µM | GI50 (NCI-H23 lung) 30.3 µM | GI50 (OVCAR-3 ovarian) > 250 µM | GI50 (OVCAR-8 ovarian) > 250 µM | GI50 (SF-268 CNS) 165 µM | GI50 (SF-295 CNS) 66.3 µM | GI50 (SF-539 CNS) 34 µM | GI50 (SK-OV-3 ovarian) 13.2 µM | GI50 (SNB-19 CNS) 69.2 µM | GI50 (SNB-75 CNS) 12.1 µM | GI50 (SNB-78 CNS) 35.2 µM | GI50 (SR leukemia) > 250 µM | GI50 (TK-10 renal) 45.5 µM | GI50 (U251 CNS) 37.5 µM | GI50 (UACC-62 melanoma) 22.7 µM | GI50 (UO-31 renal) 117 µM
67.5 µM and 181 µM: TGI (TK-10 renal)
42.2 µM and > 250 µM: TGI (SNB-78 CNS)
202 µM: TGI (K-562 leukemia)
